Assay in all cases: cell-based
Common to all, as to format: cell-based

Assay [1] addresses hNav1.4 (Homo sapiens, UniProt P35499). Conditions: Table 12; for IC50: PatchXpress, tonic block, read-out: PX hNav1.4 Tonic IC50; for Nav1.4/Nav1.7: ratio of PX tonic IC50 values.
The target of assay [2] is hNav1.6 (Homo sapiens, UniProt Q9UQD0). The note with it: Table 15; for Nav1.6/Nav1.7: ratio of PX tonic IC50 values; for IC50: read-out: PX hNav1.6 Tonic IC50.
Assay [3] deals with hNav1.7 (Homo sapiens, UniProt Q15858). Conditions: read-out: PX hNav1.7 Tonic IC50.
Where [4] appears, read: Table 12, PatchXpress, tonic block.

Three compounds from patent US10344060B2 (priority 2013, dated 2019) can be followed below.

Where two headings read alike, the source gives them in different places.

hNav1.4, sequence (P35499 whole entry): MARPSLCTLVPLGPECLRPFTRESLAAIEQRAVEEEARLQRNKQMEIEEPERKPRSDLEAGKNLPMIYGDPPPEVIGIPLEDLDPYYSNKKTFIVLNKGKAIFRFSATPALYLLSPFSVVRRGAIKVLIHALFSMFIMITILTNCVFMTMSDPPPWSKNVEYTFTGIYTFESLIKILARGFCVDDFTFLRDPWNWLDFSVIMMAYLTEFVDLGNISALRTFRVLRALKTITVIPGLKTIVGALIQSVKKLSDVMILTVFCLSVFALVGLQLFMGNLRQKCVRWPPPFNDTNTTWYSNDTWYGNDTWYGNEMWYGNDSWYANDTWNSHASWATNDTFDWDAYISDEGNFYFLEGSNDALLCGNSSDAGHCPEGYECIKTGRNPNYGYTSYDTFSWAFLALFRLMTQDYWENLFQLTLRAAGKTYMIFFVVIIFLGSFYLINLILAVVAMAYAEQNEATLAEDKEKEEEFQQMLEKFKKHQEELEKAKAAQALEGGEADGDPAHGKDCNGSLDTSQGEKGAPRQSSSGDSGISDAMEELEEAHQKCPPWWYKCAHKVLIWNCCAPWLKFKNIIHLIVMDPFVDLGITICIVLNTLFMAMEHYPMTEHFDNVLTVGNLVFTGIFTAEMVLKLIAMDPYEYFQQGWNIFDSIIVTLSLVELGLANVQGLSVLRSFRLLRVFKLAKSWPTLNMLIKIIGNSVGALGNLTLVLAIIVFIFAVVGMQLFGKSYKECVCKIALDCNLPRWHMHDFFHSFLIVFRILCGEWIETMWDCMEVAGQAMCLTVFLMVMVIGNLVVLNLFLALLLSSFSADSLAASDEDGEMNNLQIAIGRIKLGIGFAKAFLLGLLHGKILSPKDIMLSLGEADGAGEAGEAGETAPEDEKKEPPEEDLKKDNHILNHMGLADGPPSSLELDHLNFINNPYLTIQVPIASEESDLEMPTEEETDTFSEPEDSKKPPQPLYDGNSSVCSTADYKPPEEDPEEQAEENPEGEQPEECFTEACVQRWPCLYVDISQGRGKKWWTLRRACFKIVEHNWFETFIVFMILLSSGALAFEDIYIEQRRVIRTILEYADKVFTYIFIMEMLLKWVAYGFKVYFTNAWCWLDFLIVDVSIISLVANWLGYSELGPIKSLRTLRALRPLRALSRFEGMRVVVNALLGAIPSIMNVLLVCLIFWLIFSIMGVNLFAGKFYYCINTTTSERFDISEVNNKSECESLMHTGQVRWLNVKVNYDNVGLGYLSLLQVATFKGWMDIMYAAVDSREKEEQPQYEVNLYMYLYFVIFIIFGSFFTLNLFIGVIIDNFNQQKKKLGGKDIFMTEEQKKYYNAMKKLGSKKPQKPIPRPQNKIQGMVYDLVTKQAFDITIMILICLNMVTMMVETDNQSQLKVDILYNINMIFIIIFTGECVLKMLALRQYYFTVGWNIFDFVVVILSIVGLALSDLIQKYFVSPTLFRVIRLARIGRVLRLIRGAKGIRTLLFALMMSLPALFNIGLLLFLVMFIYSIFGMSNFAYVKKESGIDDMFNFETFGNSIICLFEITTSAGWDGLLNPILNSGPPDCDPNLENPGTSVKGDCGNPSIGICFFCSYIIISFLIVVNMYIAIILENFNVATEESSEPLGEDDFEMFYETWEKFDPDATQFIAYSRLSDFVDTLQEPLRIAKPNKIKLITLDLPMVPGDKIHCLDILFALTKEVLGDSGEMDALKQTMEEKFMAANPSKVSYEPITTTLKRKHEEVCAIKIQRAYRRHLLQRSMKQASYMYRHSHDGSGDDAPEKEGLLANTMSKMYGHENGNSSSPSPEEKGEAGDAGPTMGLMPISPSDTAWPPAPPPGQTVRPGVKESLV
hNav1.6, sequence (Q9UQD0 whole entry): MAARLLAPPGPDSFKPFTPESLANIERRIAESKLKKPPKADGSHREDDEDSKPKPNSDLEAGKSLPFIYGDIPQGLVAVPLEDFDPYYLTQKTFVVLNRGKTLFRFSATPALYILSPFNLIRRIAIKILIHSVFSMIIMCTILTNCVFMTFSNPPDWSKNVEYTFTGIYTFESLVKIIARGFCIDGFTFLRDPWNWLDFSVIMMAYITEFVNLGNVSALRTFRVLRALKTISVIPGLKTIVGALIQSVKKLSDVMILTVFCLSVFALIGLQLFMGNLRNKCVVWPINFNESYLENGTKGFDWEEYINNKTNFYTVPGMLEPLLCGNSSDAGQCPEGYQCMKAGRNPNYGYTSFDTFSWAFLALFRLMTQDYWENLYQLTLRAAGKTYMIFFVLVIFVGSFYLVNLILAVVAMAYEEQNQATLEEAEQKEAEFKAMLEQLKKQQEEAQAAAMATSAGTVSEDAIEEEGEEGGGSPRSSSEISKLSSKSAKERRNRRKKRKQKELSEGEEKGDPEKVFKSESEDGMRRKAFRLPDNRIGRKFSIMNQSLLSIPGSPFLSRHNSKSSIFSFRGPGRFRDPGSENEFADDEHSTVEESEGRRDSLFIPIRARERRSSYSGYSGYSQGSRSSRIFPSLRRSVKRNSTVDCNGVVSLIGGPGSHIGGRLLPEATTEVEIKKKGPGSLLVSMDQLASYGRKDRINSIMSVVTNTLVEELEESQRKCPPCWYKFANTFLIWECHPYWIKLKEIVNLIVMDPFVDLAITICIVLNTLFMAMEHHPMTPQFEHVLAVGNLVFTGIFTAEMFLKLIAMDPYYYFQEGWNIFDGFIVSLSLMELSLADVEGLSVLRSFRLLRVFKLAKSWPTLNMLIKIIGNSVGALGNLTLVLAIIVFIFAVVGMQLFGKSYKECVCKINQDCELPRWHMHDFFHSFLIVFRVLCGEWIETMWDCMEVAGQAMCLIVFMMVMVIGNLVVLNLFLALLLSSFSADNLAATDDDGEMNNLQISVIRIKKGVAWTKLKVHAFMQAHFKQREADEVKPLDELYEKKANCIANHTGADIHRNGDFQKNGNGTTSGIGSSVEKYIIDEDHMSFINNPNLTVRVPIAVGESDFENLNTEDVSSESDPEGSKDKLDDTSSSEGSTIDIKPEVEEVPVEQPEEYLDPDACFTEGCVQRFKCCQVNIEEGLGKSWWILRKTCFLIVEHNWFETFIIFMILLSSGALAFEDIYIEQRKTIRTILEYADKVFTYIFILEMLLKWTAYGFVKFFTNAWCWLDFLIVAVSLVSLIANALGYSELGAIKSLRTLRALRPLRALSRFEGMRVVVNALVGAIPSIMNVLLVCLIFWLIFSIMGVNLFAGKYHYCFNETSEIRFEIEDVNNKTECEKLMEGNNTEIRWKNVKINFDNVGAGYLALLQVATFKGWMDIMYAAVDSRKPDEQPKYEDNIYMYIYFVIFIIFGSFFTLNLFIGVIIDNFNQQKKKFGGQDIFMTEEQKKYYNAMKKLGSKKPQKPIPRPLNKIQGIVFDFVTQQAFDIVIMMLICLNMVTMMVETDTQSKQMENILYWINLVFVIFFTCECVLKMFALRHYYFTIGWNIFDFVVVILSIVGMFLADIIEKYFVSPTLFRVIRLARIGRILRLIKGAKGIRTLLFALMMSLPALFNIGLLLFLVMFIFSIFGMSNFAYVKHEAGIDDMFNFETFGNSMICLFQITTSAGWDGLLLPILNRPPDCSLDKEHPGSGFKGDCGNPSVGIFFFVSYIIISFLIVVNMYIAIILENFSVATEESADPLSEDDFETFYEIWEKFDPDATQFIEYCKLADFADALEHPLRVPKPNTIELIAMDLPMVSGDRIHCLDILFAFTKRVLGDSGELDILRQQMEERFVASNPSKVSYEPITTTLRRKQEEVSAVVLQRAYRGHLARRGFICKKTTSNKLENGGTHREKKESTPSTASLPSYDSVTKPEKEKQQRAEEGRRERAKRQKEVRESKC

In the case of `C#CC[C@H](NC(=O)[C@@H](N)CCC(=O)O)C(=O)N[C@H]1CSSC[C@@H]2NC(=O)[C@@H]3CSSC[C@@H](C(=O)N[C@@H](CCCNC(=N)N)C(=O)N[C@@H](CCCCN)C(=O)N[C@@H](CCC(=O)O)C(=O)N[C@H](C(N)=O)[C@@H](C)CC)NC(=O)[C@H](Cc4c[nH]c5ccccc45)NC(=O)[C@H](CC(C)C)NC(=O)[C@H](CCCCN)NC(=O)[C@H](CSSC[C@H](NC(=O)[C@H]([C@@H](C)O)NC(=O)[C@H](Cc4c[nH]c5ccccc45)NC(=O)[C@H](CCCC)NC(=O)[C@H](Cc4c[nH]c5ccccc45)NC(=O)[C@H](CCCCN)NC(=O)[C@H](CCC(N)=O)NC1=O)C(=O)N[C@@H](CC(=O)O)C(=O)N[C@@H](CCC(=O)O)C(=O)N[C@@H](CCC(=O)O)C(=O)N[C@@H](CCCNC(=N)N)C(=O)N[C@@H](C)C(=O)N3)NC(=O)[C@H](CCCNC(=N)N)NC(=O)[C@H](CC(C)C)NC(=O)CNC(=O)[C@H](CCC(=O)O)NC2=O` [compound 748], the IC50 (usually the point on the concentration scale where inhibition reaches its midpoint) in assay [1] turned out to be 2150 nM; in assay [2], 2730 nM; in assay [3] (setting [4]) it was 6.66 nM. Besides, the Nav1.4/Nav1.7 in assay [1] is reported as 323. Moreover, the Nav1.6/Nav1.7 in assay [2] is listed as 410.
In the case of `C#CC[C@H](NC(=O)[C@@H](N)CCC(=O)O)C(=O)N[C@H]1CSSC[C@@H]2NC(=O)[C@@H]3CSSC[C@@H](C(=O)N[C@@H](CCCNC(=N)N)C(=O)N[C@@H](CCCCN)C(=O)N[C@@H](CCC(=O)O)C(=O)N[C@H](C(N)=O)[C@@H](C)CC)NC(=O)[C@H](Cc4c[nH]c5ccccc45)NC(=O)[C@H](CC(C)C)NC(=O)[C@H](CCCCN)NC(=O)[C@H](CSSC[C@H](NC(=O)[C@H]([C@@H](C)O)NC(=O)[C@H](Cc4c[nH]c5ccccc45)NC(=O)[C@H](CCCC)NC(=O)[C@H](Cc4c[nH]c5ccccc45)NC(=O)[C@H](CCCCN)NC(=O)[C@H](CCC(N)=O)NC1=O)C(=O)N[C@@H](CC(=O)O)C(=O)N[C@@H](CO)C(=O)N[C@@H](CCCCN)C(=O)N[C@@H](CCCNC(=N)N)C(=O)N[C@@H](CCC(=O)O)C(=O)N3)NC(=O)[C@H](CCCNC(=N)N)NC(=O)[C@H](CC(C)C)NC(=O)CNC(=O)[C@H](CCC(=O)O)NC2=O` [compound 738], the IC50 in assay [1] was found to be 246 nM; in assay [2], 563 nM; in assay [3] (setting [4]) it was 0.563 nM; in assay [3] (Table 15), 0.525 nM. Besides, the Nav1.4/Nav1.7 in assay [1] came to 437. For the same compound, the Nav1.6/Nav1.7 in assay [2] is on record as 1071.
On to `C#CC[C@H](N)C(=O)N[C@@H](Cc1ccc(O)cc1)C(=O)N[C@H]1CSSC[C@@H]2NC(=O)[C@@H]3CSSC[C@@H](C(=O)N[C@@H](CCCNC(=N)N)C(=O)N[C@@H](CCCCN)C(=O)N[C@@H](CCC(=O)O)C(=O)N[C@H](C(N)=O)[C@@H](C)CC)NC(=O)[C@H](Cc4c[nH]c5ccccc45)NC(=O)[C@H](CC(C)C)NC(=O)[C@H](CCCCN)NC(=O)[C@H](CSSC[C@H](NC(=O)[C@H]([C@@H](C)O)NC(=O)[C@H](Cc4c[nH]c5ccccc45)NC(=O)[C@H](CCCC)NC(=O)[C@H](Cc4c[nH]c5ccccc45)NC(=O)[C@H](CCCCN)NC(=O)[C@H](CCC(N)=O)NC1=O)C(=O)N[C@@H](CC(=O)O)C(=O)N[C@@H](CCC(=O)O)C(=O)N[C@@H](CCC(=O)O)C(=O)N[C@@H](CCCNC(=N)N)C(=O)N[C@@H](C)C(=O)N3)NC(=O)[C@H](CCCNC(=N)N)NC(=O)[C@H](CC(C)C)NC(=O)CNC(=O)[C@H](CCC(=O)O)NC2=O` [compound 744], for which, in assay [1], the IC50 was determined as 1420 nM and the Nav1.4/Nav1.7 was found to be 374. Moreover, in assay [2], the Nav1.6/Nav1.7 is 217 and the 50% inhibitory concentration (IC50) was found to be 825 nM. For the same compound, the IC50 in assay [3] (setting [4]) was 3.8 nM.
